# Assay results taken from US10251852B2, “Composition and methods for treatment of lung disorders characterized by cholesterol dysregulation” (priority 2016, dated 2019).
# Columns and labels:
# [1] = tested on: Csf2−/− BMD macrophages; assay: GM-CSF plasticity studies (withdrawal, multi-day stimulation, dose response) with PAP-S challenge; assay type: cell-based, mouse; details: for reduction in exposure-related cholesterol ester accumulation: addition of GM-CSF (10 ng/ml) to macrophages cultured without it; for increase in exposure-related cholesterol ester accumulation: withdrawal of GM-CSF
# Protocol: (§1) In vitro surfactant challenge assay. BMD macrophages or peritoneal macrophages were seeded at 4×10^5 cells per well of a 12 well tissue culture plate and allowed to adhere with fresh media and cytokines overnight. Cells were then challenged for 24 hrs with pulmonary surfactant isolated from a hereditary PAP patient (PAP-S). After the challenge cells were gently washed with PBS to remove exogenous PAP-S and cellular lipids were then extracted and analyzed by the amplex red cholesterol assay.
# GM-CSF withdrawal. Csf2^−/− BMD macrophages were differentiated and maintained in media containing M-CSF and GM-CSF. After 7 days of differentiation cells were split into 12well tissue culture plates and allowed to adhere overnight in GM-CSF containing media. The following day the media was changed to M-CSF only and cells were challenged with PAP-S for 24hrs immediately or 24, 48, and 72 hours after GM-CSF withdrawal. Cellular lipids were extracted, normalized to total protein, and analyzed. Csf2^−/− BMD macrophages were used to ensure elimination of any potential autologous GM-CSF expression-related stimulation.
# Multi-Day GM-CSF stimulation. Csf2^−/− BMD macrophages were generated in media containing M-CSF. On the 7th day cells were stimulated for 0, 24, 48, or 72 hrs with 10 ng/ml of GM-CSF before 24 hr surfactant challenge with PAP-S. Cellular lipids were extracted, normalized to total protein, and analyzed.
# GM-CSF dose response. Csf2^−/− BMD macrophages were generated in media containing M-CSF. On the 7th day cells were stimulated by a dose response of GM-CSF (0, 0.1,1,10, and 100 ng/ml) for 24 hrs before surfactant challenge with PAP-S. Cellular lipids were extracted, normalized to total protein, and analyzed.
# [2] = tested on: BMD macrophages from PAP mice (Csf2−/−); assay: In vitro surfactant challenge assay after PPARγ/LXR stimulation (esterified cholesterol accumulation); assay type: cell-based, mouse
# Protocol: as §1
# In vitro mouse PPARγ & LXR stimulation Studies. BMD macrophages were prepared as previously described in the presence of M-CSF (10 ng/ml). On the 7th day macrophages were stimulated for 24 hrs with M-CSF (10 ng/ml), GM-CSF (10 ng/ml), Pioglitazone (10 μm) or T0901317 (1 μm from Tocris). Macrophages were then used for an in vitro surfactant challenge assay or gene expression analysis by qRT-PCR as described above.
# [3] = tested on: alveolar macrophages from PAP patients; assay: Ex vivo human PPARγ & LXR stimulation, mRNA by qRT-PCR; assay type: cell-based
# Protocol: Bronchoalveolar lavage and alveolar macrophage collection in human participants. This study was conducted with the approval of the Cincinnati Children's Hospital Medical Center institutional review board and all participants or their legal guardians gave written informed consent. Human BAL fluid and alveolar macrophages were obtained from BAL using flexible bronchoscopy or from discarded material of PAP patients undergoing therapeutic whole lung lavage. After the fluid was centrifuged at 283 g for 10 minutes, the cellular pellet was re-suspended in the culture medium. Human alveolar macrophages were isolated by adherence to tissue culture plastic. Extracellular debris was removed by gentle washing with PBS.
# (§2) RNA isolation and gene expression analysis. Total RNA was isolated using Trizol (Life Technologies) and was converted to cDNA using the Invitrogen Superscript III first strand synthesis kit (Life Technologies) according to the manufacturer's protocol. Standard quantitative RT-PCR (qRT-PCR) was performed as previously described 10 on an Applied Biosystems 7300 Real-Time PCR System (Life Technologies) to measure transcript abundance using TaqMan® oligonucleotide primer sets (all from Life Technologies). Expression of target genes was normalized to the expression of 18s RNA.
# Ex vivo human PPARγ & LXR stimulation studies. After purifying alveolar macrophages, fresh media was added to the adherent alveolar macrophages containing human M-CSF (R&D) (25ng/ml) only or M-CSF plus Pioglitazone (Sigma) (10 μM) or T0901317 (Tocris) (1 μM) for 24 hrs. qRT-PCR was performed as described above.
# [4] = tested on: BMD macrophages from PAP mice (Csf2−/−); assay: In vitro mouse PPARγ & LXR stimulation, gene expression by qRT-PCR; assay type: cell-based; details: T0901317 1 μm
# Protocol: Tissue macrophage differentiation and culture. All cells were maintained in the culture medium of Dulbecco's modified eagle's medium (DMEM) (Life Technologies) plus 10% FBS, 50 U ml-1 penicillin, and 50 μg ml-1 streptomycin. Bone marrow cells were obtained from 6-8-week-old mice by flushing the tibias and femurs with the culture media described above.
# Mononuclear cells were isolated by centrifugation over a Ficoll-Paque (GE Healthcare Life Sciences) gradient at room temperature for 30 minutes. The buffy coat was washed in PBS and the cellular pellet re-suspended in the culture medium with M-CSF (R&D Systems) (5 ng/ml) plus or minus GM-CSF (R&D Systems) as dictated per experimental requirements. Cells were cultured in a 10 cm dish overnight at 37° C. and the next day non-adherent cells were recovered and transferred to a new dish and cultured under the same conditions for an additional 24 hrs. At this stage non-adherent cells were discarded and adherent cells cultured for an additional five days to allow differentiation of bone marrow derived (BMD) macrophages. Peritoneal macrophages were isolated from the peritoneal without chemical solicitation by washing with 8 ml of PBS plus 0.5 mM EDTA. WT peritoneal macrophages were cultured in vitro in culture medium with M-CSF (5 ng/ml) and GM-CSF […], and Csf2^−/− peritoneal macrophages were cultured in culture medium with M-CSF alone. […]
# [5] = tested on: Csf2rb−/− mice; assay: In vivo LXR stimulation study (oral T0901317 in PAP mice); parameters: species or system mouse; details: oral gavage 10 mg/kg/day, 7 days
# Protocol: Bronchoalveolar lavage and alveolar macrophage collection in mice.
# RNA isolation and gene expression analysis.
# In vivo LXR Stimulation Studies. Mice were administered T0901317 by oral gavage once daily for 7 days at a dose of 10 mg/kg/BW/Day using propylene glycol and tween 80 as a vehicle. On the 7th day alveolar macrophages were collected by bronchoalveolar lavage. Following brief adherence to tissue culture plastic to remove BAL debris, alveolar macrophages were then used for RNA isolation and gene expression analysis by qRT-PCR as described above
# [6] = tested on: Csf2rb−/− mice; assay: In vivo PPARγ stimulation study (oral pioglitazone in PAP mice)
# Excerpt: Bronchoalveolar lavage and alveolar macrophage collection in mice. GM-CSF (CSF2) knockout (Csf2^−/−) mice5 and Csf2rb gene-deficient (Csf2rb^−/−)14 were reported previously (referred to mouse PAP). C57B1/6 mice (referred to as wild type or WT mice) were purchased from Charles River. All mice were bred, housed, and studied in the Cincinnati Children's Research Foundation Vivarium using protocols approved by the Institutional Animal Care and Use Committee. Epithelial lining fluid and non-adherent cells were collected from indicated mice by bronchoalveolar lavage (BAL) using five lml aliquots of PBS plus 0.5 mM EDTA4. The 1 ml aliquots were pooled and the recovered volumes recorded. The supernatant was removed and the cellular pellets were re-suspended in the culture media for isolation of alveolar macrophages by adherence to tissue culture plastic.
# Cholesterol levels. Total and free cholesterol levels were measured by the amplex red cholesterol assay (Life Technologies) per the manufacturer's protocol. Esterified cholesterol was then calculated by subtracting free cholesterol from the total value.
# Turbidity. The turbidity of the fluid was measured as previously described^4,55 Briefly, 250 uls of the BAL were diluted into 750 uls of PBS and the optical density measured at a wavelength of 600 nm and multiplied by the dilution factor.
# as §2
# In vivo PPARγ stimulation studies. Pioglitazone was incorporated into standard rodent chow at a dose expected to deliver 20 mg/kg BW/Day. BAL turbidity and alveolar macrophage gene expressions were measured as described above. GM-CSF levels and total cholesterol levels in the BAL were measured in the supernatant of fluid after centrifuge at 283 g for 10 minutes at 4° C. by enzyme-linked immunosorbent assay (ELISA) (R&D systems) and Amplex Red Cholesterol assay respectively as described above.
# [7] = tested on: patients with insulin resistance; details: literature ref. 53; cited from earlier work
# [8] = pioglitazone 10 μM, 24 hrs, compared to untreated controls (FIG. 5A-5B)
# [9] = oral in food, 20 mg/kg/day, six weeks, vs untreated age-matched controls (FIG. 5F-5G)
compound,measurement,setting,value
GM-CSF: granulocyte/macrophage-colony stimulating factor (R&D Systems),cholesterol clearance capacity of macrophages,"[1]; GM-CSF 0, 0.1, 1, 10, 100 ng/ml for 24 hrs before PAP-S challenge (FIG. 3N)",increased the cholesterol clearance capacity of macrophages in dose-dependent fashion
same,reduction in exposure-related cholesterol ester accumulation,[1]; by 24 hours (FIG. 3M),27%
same,reduction in exposure-related cholesterol ester accumulation,[1]; by 72 hours (FIG. 3M),49%
same,increase in exposure-related cholesterol ester accumulation,[1]; by 24 hours (FIG. 3L),86%
same,increase in exposure-related cholesterol ester accumulation,[1]; by 72 hours (FIG. 3L),309%
"O=S(=O)(c1ccccc1)N(CC(F)(F)F)c1ccc(C(O)(C(F)(F)F)C(F)(F)F)cc1 [T0901317, N-(2,2,2-trifluoroethyl)-N-[4-[2,2,2-trifluoro-1-hydroxy-1-(trifluoromethyl)ethyl]phenyl]-benzenesulfonamide]",cholesterol ester accumulation following exposure to PAP-surfactant,"[2]; T0901317 1 μm 24 hrs, then PAP-S 24 hrs (FIG. 8E)",reduced
same,ABCG1 mRNA,"[3]; T0901317 1 μM, 24 hrs (FIG. 8A)",increase
same,ABCA1 mRNA,"[3]; T0901317 1 μM, 24 hrs (FIG. 8B)",increase
same,Abcg1 mRNA level,[4]; 24 hrs (FIG. 8C),increased
same,Abca1 mRNA level,[4]; 24 hrs (FIG. 8D),increased
same,Abca1 mRNA in alveolar macrophages,[5]; vs untreated age-matched controls (FIG. 8F),significantly increased
same,Abcg1 mRNA in alveolar macrophages,[5]; vs untreated age-matched controls (FIG. 8G),significantly increased
"CCc1ccc(CCOc2ccc(CC3SC(=O)NC3=O)cc2)nc1 (stereo not shown) [pioglitazone, Pioglitazone]",cholesterol ester accumulation following exposure to PAP-surfactant,"[2]; pioglitazone 10 μm 24 hrs, then PAP-S 24 hrs (FIG. 5E)",reduced
same,ABCA1 mRNA,[3]; [8],did not alter
same,ABCG1 mRNA,[3]; [8],markedly increased
same,Abca1 mRNA in alveolar macrophages,[6]; [9],significantly increased
same,Abcg1 mRNA in alveolar macrophages,[6]; [9],significantly increased
same,BAL turbidity,"[6]; oral in food, 20 mg/kg/day, six weeks, vs untreated age-matched controls (FIG. 5H)",significantly reduced
same,BAL cholesterol level,"[6]; oral in food, 20 mg/kg/day, six weeks, vs untreated age-matched controls (FIG. 5I)",significantly reduced
same,adverse effects,[6]; oral pioglitazone in Csf2rb−/− mice (not shown),no apparent adverse effects
same,severity of PAP lung disease,[6]; pioglitazone therapy of GM-CSF deficient mice (summary statement),reduced the severity
same,risk of stroke or myocardial infarction,[7],reduce the risk
